# Laboratory results from patent publication US11345912B2, “Directed evolution of multivalent glycopeptides that tightly bind to target proteins” (Brandeis University, priority 2013, dated 2022).
# *1 amine or outer side, *2 acyl side, *3 side chain or, on linkers, in order; H or OH if unused. [ ]: non-standard residue; d: D form. The star is where a group is joined. X1 = O=C([C@H](CCc1cn(C2CCC(OC3O[C@H](CO[C@H]4O[C@H](CO[C@H]5O[C@H](CO)[C@@H](O)[C@H](O)[C@@H]5O[C@H]5O[C@H](CO)[C@@H](O)[C@H](O)[C@@H]5O)[C@@H](O)[C@H](O[C@H]5O[C@H](CO)[C@@H](O)[C@H](O)[C@@H]5O[C@H]5O[C@H](CO)[C@@H](O)[C@H](O)[C@@H]5O)[C@@H]4O)[C@@H](O)[C@H](O[C@H]4O[C@H](CO)[C@@H](O)[C@H](O)[C@@H]4O[C@H]4O[C@H](CO)[C@@H](O)[C@H](O)[C@@H]4O[C@H]4O[C@H](CO)[C@@H](O)[C@H](O)[C@@H]4O)[C@@H]3O)CC2)nn1)N[*:1])[*:2]; For = O=C*
# System: 2G12
# Test: Binding curve and KD determination of 2G12-glycopeptide interaction (radiolabeled glycopeptide, protein G magnetic bead capture, scintillation counting)
# Method in brief: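 Radiolabeled glycopeptide (<4 pmol) from PURE-system translation with click glycosylation was incubated with 100 nM 2G12 at room temperature. Complexes were captured on protein G beads and eluted at 70° C. Bound and unbound fractions were counted by scintillation, run at least in triplicate, and KD derived from binding curves.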
# [1] = Table 6 mutational analysis, radioactive bead binding assay
# [2] = Table 6 mutational analysis, radioactive bead binding assay, ribosomally translated
Molecule,"Fmax [%] (Table 4, maximal fraction bound from curve fit, error = standard error of fit)","Kd (Table 4, ribosomally translated radiolabeled glycopeptide with His6/FLAG tag, room temperature, fit Fbound=(Fmax[2G12])/(KD+[2G12]), error = standard error of fit)",Fmax [%] [1],Kd [2]
"CC[C@H](C)[C@H](NC(=O)[C@H](CCC(=O)O)NC(=O)CNC(=O)[C@H](Cc1c[nH]c2ccccc12)NC(=O)[C@@H](NC(=O)[C@@H](NC(=O)[C@@H]1CCCN1C(=O)[C@H](CCc1cn(C2CCC(OC3O[C@H](CO[C@H]4O[C@H](CO[C@H]5O[C@H](CO)[C@@H](O)[C@H](O)[C@@H]5O[C@H]5O[C@H](CO)[C@@H](O)[C@H](O)[C@@H]5O)[C@@H](O)[C@H](O[C@H]5O[C@H](CO)[C@@H](O)[C@H](O)[C@@H]5O[C@H]5O[C@H](CO)[C@@H](O)[C@H](O)[C@@H]5O)[C@@H]4O)[C@@H](O)[C@H](O[C@H]4O[C@H](CO)[C@@H](O)[C@H](O)[C@@H]4O[C@H]4O[C@H](CO)[C@@H](O)[C@H](O)[C@@H]4O[C@H]4O[C@H](CO)[C@@H](O)[C@H](O)[C@@H]4O)[C@@H]3O)CC2)nn1)NC(=O)[C@H](CC(C)C)NC(=O)[C@H](Cc1ccc(O)cc1)NC(=O)[C@@H](NC(=O)[C@H](Cc1ccc(O)cc1)NC(=O)[C@@H](NC(=O)[C@@H]1CCCN1C(=O)[C@@H](NC(=O)[C@H](CO)NC(=O)[C@H](CC(C)C)NC(=O)[C@H](CCc1cn(C2CCC(OC3O[C@H](CO[C@H]4O[C@H](CO[C@H]5O[C@H](CO)[C@@H](O)[C@H](O)[C@@H]5O[C@H]5O[C@H](CO)[C@@H](O)[C@H](O)[C@@H]5O)[C@@H](O)[C@H](O[C@H]5O[C@H](CO)[C@@H](O)[C@H](O)[C@@H]5O[C@H]5O[C@H](CO)[C@@H](O)[C@H](O)[C@@H]5O)[C@@H]4O)[C@@H](O)[C@H](O[C@H]4O[C@H](CO)[C@@H](O)[C@H](O)[C@@H]4O[C@H]4O[C@H](CO)[C@@H](O)[C@H](O)[C@@H]4O[C@H]4O[C@H](CO)[C@@H](O)[C@H](O)[C@@H]4O)[C@@H]3O)CC2)nn1)NC(=O)[C@H](CCCNC(=N)N)NC(=O)[C@H](Cc1ccccc1)NC(=O)[C@@H]1CCCN1C(=O)[C@H](CC(N)=O)NC(=O)[C@@H](NC(=O)[C@H](CC(N)=O)NC(=O)[C@@H](NC(=O)[C@H](CO)NC(=O)[C@@H](NC(=O)[C@@H](NC(=O)[C@@H](NC(=O)[C@@H]1CCCN1C(=O)[C@H](CC(C)C)NC(=O)[C@@H](NC(=O)[C@H](CCc1cn(C2CCC(OC3O[C@H](CO[C@H]4O[C@H](CO[C@H]5O[C@H](CO)[C@@H](O)[C@H](O)[C@@H]5O[C@H]5O[C@H](CO)[C@@H](O)[C@H](O)[C@@H]5O)[C@@H](O)[C@H](O[C@H]5O[C@H](CO)[C@@H](O)[C@H](O)[C@@H]5O[C@H]5O[C@H](CO)[C@@H](O)[C@H](O)[C@@H]5O)[C@@H]4O)[C@@H](O)[C@H](O[C@H]4O[C@H](CO)[C@@H](O)[C@H](O)[C@@H]4O[C@H]4O[C@H](CO)[C@@H](O)[C@H](O)[C@@H]4O[C@H]4O[C@H](CO)[C@@H](O)[C@H](O)[C@@H]4O)[C@@H]3O)CC2)nn1)NC=O)C(C)C)[C@@H](C)O)[C@@H](C)CC)[C@@H](C)CC)[C@@H](C)O)C(C)C)[C@@H](C)CC)[C@@H](C)O)[C@@H](C)O)[C@@H](C)CC)[C@@H](C)O)C(=O)NCC(=O)N[C@@H](CO)C(=O)NCC(=O)N[C@@H](CO)C(=O)N[C@@H](CC(C)C)C(=O)NCC(=O)N[C@@H](Cc1c[nH]cn1)C(=O)N[C@@H](Cc1c[nH]cn1)C(=O)N[C@@H](Cc1c[nH]cn1)C(=O)N[C@@H](Cc1c[nH]cn1)C(=O)N[C@@H](Cc1c[nH]cn1)C(=O)N[C@@H](Cc1c[nH]cn1)C(=O)N[C@@H](CCCNC(=N)N)C(=O)N[C@@H](CC(=O)O)C(=O)N[C@@H](Cc1ccc(O)cc1)C(=O)N[C@@H](CCCCN)C(=O)N[C@@H](CC(=O)O)C(=O)N[C@@H](CC(=O)O)C(=O)N[C@@H](CC(=O)O)C(=O)N[C@@H](CC(=O)O)C(=O)N[C@@H](CCCCN)C(=O)O (stereo partly drawn) [Clone 10V8, XVLPTIISTNVNPFRXLSIPTYTYLXPITWGEI]",94 ± 2.0%,4.6 ± 0.34 nM,–,–
"For-[X1]PNCITQQDVR[X1]TSIPYTYTWPGSGSLGHHHHHHRDYKDDDDK-OH [Clone 10F3-Δ11, XPNCITQQDVRXTSIPYTYTWP]",–,–,32%,25 nM
CC[C@H](C)[C@H](NC(=O)[C@H](CCC(N)=O)NC(=O)[C@H](CCCCN)NC(=O)[C@H](CC(C)C)NC(=O)[C@H](Cc1c[nH]cn1)NC(=O)[C@H](CC(C)C)NC(=O)[C@@H](NC(=O)[C@H](CC(=O)O)NC(=O)[C@H](CCc1cn(C2CCC(OC3O[C@H](CO[C@H]4O[C@H](CO[C@H]5O[C@H](CO)[C@@H](O)[C@H](O)[C@@H]5O[C@H]5O[C@H](CO)[C@@H](O)[C@H](O)[C@@H]5O)[C@@H](O)[C@H](O[C@H]5O[C@H](CO)[C@@H](O)[C@H](O)[C@@H]5O[C@H]5O[C@H](CO)[C@@H](O)[C@H](O)[C@@H]5O)[C@@H]4O)[C@@H](O)[C@H](O[C@H]4O[C@H](CO)[C@@H](O)[C@H](O)[C@@H]4O[C@H]4O[C@H](CO)[C@@H](O)[C@H](O)[C@@H]4O[C@H]4O[C@H](CO)[C@@H](O)[C@H](O)[C@@H]4O)[C@@H]3O)CC2)nn1)NC=O)[C@@H](C)O)C(=O)NCC(=O)NCC(=O)N[C@@H](CCc1cn(C2CCC(OC3O[C@H](CO[C@H]4O[C@H](CO[C@H]5O[C@H](CO)[C@@H](O)[C@H](O)[C@@H]5O[C@H]5O[C@H](CO)[C@@H](O)[C@H](O)[C@@H]5O)[C@@H](O)[C@H](O[C@H]5O[C@H](CO)[C@@H](O)[C@H](O)[C@@H]5O[C@H]5O[C@H](CO)[C@@H](O)[C@H](O)[C@@H]5O)[C@@H]4O)[C@@H](O)[C@H](O[C@H]4O[C@H](CO)[C@@H](O)[C@H](O)[C@@H]4O[C@H]4O[C@H](CO)[C@@H](O)[C@H](O)[C@@H]4O[C@H]4O[C@H](CO)[C@@H](O)[C@H](O)[C@@H]4O)[C@@H]3O)CC2)nn1)C(=O)N1CCC[C@H]1C(=O)N[C@@H](CC(N)=O)C(=O)N[C@@H](CO)C(=O)N[C@H](C(=O)N[C@H](C(=O)N[C@@H](CCC(N)=O)C(=O)N[C@@H](CCC(N)=O)C(=O)N[C@@H](CC(=O)O)C(=O)N[C@H](C(=O)N[C@@H](CCCNC(=N)N)C(=O)N[C@@H](CCc1cn(C2CCC(OC3O[C@H](CO[C@H]4O[C@H](CO[C@H]5O[C@H](CO)[C@@H](O)[C@H](O)[C@@H]5O[C@H]5O[C@H](CO)[C@@H](O)[C@H](O)[C@@H]5O)[C@@H](O)[C@H](O[C@H]5O[C@H](CO)[C@@H](O)[C@H](O)[C@@H]5O[C@H]5O[C@H](CO)[C@@H](O)[C@H](O)[C@@H]5O)[C@@H]4O)[C@@H](O)[C@H](O[C@H]4O[C@H](CO)[C@@H](O)[C@H](O)[C@@H]4O[C@H]4O[C@H](CO)[C@@H](O)[C@H](O)[C@@H]4O[C@H]4O[C@H](CO)[C@@H](O)[C@H](O)[C@@H]4O)[C@@H]3O)CC2)nn1)C(=O)N[C@H](C(=O)N[C@@H](CO)C(=O)N[C@H](C(=O)N1CCC[C@H]1C(=O)N[C@@H](Cc1ccc(O)cc1)C(=O)N[C@H](C(=O)N[C@@H](Cc1ccc(O)cc1)C(=O)N[C@H](C(=O)N[C@@H](Cc1c[nH]c2ccccc12)C(=O)N1CCC[C@H]1C(=O)NCC(=O)N[C@@H](CO)C(=O)NCC(=O)N[C@@H](CO)C(=O)N[C@@H](CC(C)C)C(=O)NCC(=O)N[C@@H](Cc1c[nH]cn1)C(=O)N[C@@H](Cc1c[nH]cn1)C(=O)N[C@@H](Cc1c[nH]cn1)C(=O)N[C@@H](Cc1c[nH]cn1)C(=O)N[C@@H](Cc1c[nH]cn1)C(=O)N[C@@H](Cc1c[nH]cn1)C(=O)N[C@@H](CCCNC(=N)N)C(=O)N[C@@H](CC(=O)O)C(=O)N[C@@H](Cc1ccc(O)cc1)C(=O)N[C@@H](CCCCN)C(=O)N[C@@H](CC(=O)O)C(=O)N[C@@H](CC(=O)O)C(=O)N[C@@H](CC(=O)O)C(=O)N[C@@H](CC(=O)O)C(=O)N[C@@H](CCCCN)C(=O)O)[C@@H](C)O)[C@@H](C)O)[C@@H](C)CC)[C@@H](C)O)C(C)C)[C@@H](C)O)[C@@H](C)CC (stereo partly drawn) [Clone 10F3-C15S],–,–,63%,2.91 nM
